Columns and labels:
[1] = Liver microsome stability, rat; type: in vitro ADME; settings: Rat liver microsomes (#); for microsomal CLint: read-out: CLint rodent; for half-life: read-out: Rodent liver microsomes t1/2
P-gp (human MDR1, ABCB1) = experiment: MDCK-MDR1 permeability (blood brain barrier permeability); type: in vitro ADME, Canine; settings: dog; for Papp A→B at 5 μM: MDCK-MDR1, Apical to basolateral transport; for Papp A→B at 5 μM / Papp B→A at 5 μM: average of two experiments; for Papp B→A at 5 μM: MDCK-MDR1, Basolateral to apical transport; for efflux ratio at 5 μM: MDCK-MDR1, 5 μM, read-out: Efflux ratio (ratio B-A/A-B)
[2] = tested on: diffuse large B cell lymphoma (DLBCL) cell lines; settings: multiple DLBCL cell lines; cited from earlier work
[3] = Liver microsome stability, mouse; type: in vitro ADME; settings: for half-life: mouse, liver microsomes
[4] = biological target: T1, death-associated protein kinase-related apoptosis-inducing protein kinase 1 (DRAK1) (Homo sapiens, UniProt Q9UEE5); experiment: Off-target kinase screen DRAK1; type: biochemical; settings: 1 μM test compound
T1 sequence (Q9UEE5 1-414): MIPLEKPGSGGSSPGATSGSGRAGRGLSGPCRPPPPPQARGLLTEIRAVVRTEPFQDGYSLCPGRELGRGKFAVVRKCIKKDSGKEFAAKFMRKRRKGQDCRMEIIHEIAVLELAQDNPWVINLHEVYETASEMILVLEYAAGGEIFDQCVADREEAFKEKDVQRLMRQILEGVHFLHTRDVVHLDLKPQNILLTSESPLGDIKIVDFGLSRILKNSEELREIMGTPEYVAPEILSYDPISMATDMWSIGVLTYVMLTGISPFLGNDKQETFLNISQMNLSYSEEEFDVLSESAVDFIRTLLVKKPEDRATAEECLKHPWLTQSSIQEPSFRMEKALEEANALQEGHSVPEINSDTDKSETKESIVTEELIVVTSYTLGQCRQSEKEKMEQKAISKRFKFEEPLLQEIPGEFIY
Text: (§1) These kinases were chosen because they are the only known off-target hit kinases for eFT508. These assays were done using recombinant human kinases (CLK4, DRAK1 and PKG2) in a substrate phosphorylation assay. % activity remaining after MNK inhibitor treatment is indicated in Table 12.

[5] = tested on: eIF4E phosphorylation at serine 209 in various tumor cell lines; settings: cited from earlier work
[6] = biological target: Cdc2-like kinase 4 (CLK4) (Homo sapiens, UniProt Q9HAZ1); experiment: Off-target kinase screen CLK4; type: biochemical; settings: 1 μM test compound
Text: as §1

[7] = Liver microsome stability, human; type: in vitro ADME; settings: liver microsomes; for half-life: read-out: Human liver microsomes t1/2
[8] = biological target: T2, protein kinase G 2 (PKG2) (Homo sapiens, UniProt Q13237); experiment: Off-target kinase screen PKG2; type: biochemical; settings: 1 μM test compound
T2 sequence (Q13237 1-762): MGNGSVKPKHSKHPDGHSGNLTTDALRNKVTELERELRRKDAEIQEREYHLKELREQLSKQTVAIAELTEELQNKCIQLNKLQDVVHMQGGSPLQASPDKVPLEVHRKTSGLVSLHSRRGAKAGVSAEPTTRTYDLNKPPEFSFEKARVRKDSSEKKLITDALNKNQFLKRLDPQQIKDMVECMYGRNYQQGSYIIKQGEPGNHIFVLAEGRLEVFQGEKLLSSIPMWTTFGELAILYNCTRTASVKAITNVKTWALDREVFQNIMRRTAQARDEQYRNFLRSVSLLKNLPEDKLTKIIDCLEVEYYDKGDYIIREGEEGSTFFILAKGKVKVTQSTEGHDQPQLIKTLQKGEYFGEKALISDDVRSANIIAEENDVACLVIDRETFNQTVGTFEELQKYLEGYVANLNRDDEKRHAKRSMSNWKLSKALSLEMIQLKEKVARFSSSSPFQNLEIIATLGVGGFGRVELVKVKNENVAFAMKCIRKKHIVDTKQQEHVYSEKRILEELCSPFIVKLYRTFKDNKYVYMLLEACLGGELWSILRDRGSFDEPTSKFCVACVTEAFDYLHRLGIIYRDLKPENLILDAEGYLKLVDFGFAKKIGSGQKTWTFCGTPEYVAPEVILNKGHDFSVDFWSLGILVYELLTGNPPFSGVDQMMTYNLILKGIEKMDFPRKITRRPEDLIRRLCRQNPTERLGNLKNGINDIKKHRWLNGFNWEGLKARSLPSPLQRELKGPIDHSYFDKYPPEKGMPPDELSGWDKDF
Text: as §1

MDCK-MDR1 = MDCK-MDR1 permeability (blood brain barrier permeability); type: in vitro ADME, Canine; settings: 5 μM
MNK1 = MNK1 (Homo sapiens, UniProt Q9BUB5); experiment: MNK1 substrate phosphorylation assay; type: biochemical; settings: recombinant human kinase
MNK2 = MNK2 (Homo sapiens, UniProt Q9HBH9); experiment: MNK2 substrate phosphorylation assay; type: biochemical; settings: recombinant human kinase
[9] = tested on: eIF4E phosphorylation at Serine 209 in the human embryonic kidney (HEK) 293 cell line; experiment: eIF4E phosphorylation in HEK 293 cells (fluorescent plate reader); type: cell-based; settings: eIF4E phosphorylation at Serine 209, 2 hours exposure
Method in brief: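 HEK-293 cells were treated with compound for 2 h, then methanol-fixed and Triton-permeabilized. Ser209 phospho-eIF4E was stained with primary antibody (1:2000, overnight) and an Alexa Fluor 488 secondary. Fluorescence was normalized to DAPI, and IC50 was fitted from concentration-response data.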

IL-6 evoked grimace = IL-6 evoked grimace test; type: in vivo, ICR mice
Protocol: Institute for Cancer Research (ICR) mice were used in these experiments. Mice were bred in house at University of Texas at Dallas and used at between 12 and 24 weeks of age. Mice were habituated to plexiglass boxes of approximately 4×6 inches in size with openable tops. Habituation took place over 2 days with animals exposed to the boxes for at least 30 min. A blinded observer scored baseline grimacing using the method previously described by Mogil and colleagues (Langford, et al., Coding of facial expressions of pain in the laboratory mouse. Nat Methods (2010) 7:447-449.). On test day, mice were given test compounds 1 hr prior to injection of interleukin 6 (human recombinant IL-6, R&D Systems) which was given at a dose of 0.1 ng in saline via an intraplantar injection as described previously (Moy et al. The MNK-eIF4E Signaling Axis Contributes to Injury-Induced Nociceptive Plasticity and the Development of Chronic Pain. J Neurosci (2017) 37:7481-7499.). Test compounds were given orally (PO) via a flexible oral gavage canula built for mice. 4ET-01-021 (10.0, 3.0, and 1.0 mg/kg) and 4ET-03-052B (10.0 mg/kg) are efficacious in the IL-6 evoked grimace test in mice. FIG. 5 depicts a comparison of effect size in the IL-6 evoked grimace test. Effect sizes were calculated per mouse by subtracting the baseline grimace score from the sum of the grimace scores for 1 and 3 hr time points. […] FIG. 6 is a graph showing the effect size in the IL-6 evoked grimace test vs. dose of 4ET-01-021.

[10] = tested on: eIF4E phosphorylation at Serine 209 in Karpas 299; experiment: eIF4E phosphorylation in Karpas 299 cells (sandwich ELISA); type: cell-based; settings: Homo sapiens, read-out: Karpas 299 cell IC50
Protocol: The ability of MNK inhibitors described herein to inhibit eIF4E phosphorylation at Serine 209 in Karpas 299, Human Non-Hodgkin's Ki-positive Large Cell Lymphoma cell line was tested by sandwich enzyme linked immune-absorbance assay.

[11] = tested on: eIF4E phosphorylation at Serine 209 in the human osteosarcoma (U2OS) cell line; experiment: eIF4E phosphorylation in U2OS cells (fluorescent plate reader); type: cell-based; settings: Homo sapiens, U2OS; eIF4E phosphorylation at Serine 209, 2 hours exposure
Protocol: The ability of MNK inhibitors described herein to inhibit eIF4E phosphorylation at Serine 209 in the human osteosarcoma (U2OS) cell line was tested by exposing the cells to compound for 2 hours and then measuring eIF4E phosphorylation with a phosphorylation-specific antibody in a fluorescent plate reader.

Sequence of Cdc2-like kinase 4 (CLK4) (Q9HAZ1 whole entry): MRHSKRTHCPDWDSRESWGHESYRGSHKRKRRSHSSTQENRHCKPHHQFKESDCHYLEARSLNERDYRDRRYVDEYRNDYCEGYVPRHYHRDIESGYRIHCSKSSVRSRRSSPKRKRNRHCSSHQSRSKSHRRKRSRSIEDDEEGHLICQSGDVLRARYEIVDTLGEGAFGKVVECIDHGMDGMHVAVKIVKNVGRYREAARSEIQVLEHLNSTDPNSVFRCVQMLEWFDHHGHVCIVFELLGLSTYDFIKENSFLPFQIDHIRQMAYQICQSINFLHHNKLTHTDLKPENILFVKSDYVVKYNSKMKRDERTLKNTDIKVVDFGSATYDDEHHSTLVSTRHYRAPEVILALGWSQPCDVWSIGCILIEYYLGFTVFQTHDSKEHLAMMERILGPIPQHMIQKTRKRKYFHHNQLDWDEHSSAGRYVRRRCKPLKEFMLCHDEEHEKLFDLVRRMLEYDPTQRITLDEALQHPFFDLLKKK
Sequence of MNK1 (Q9BUB5 whole entry): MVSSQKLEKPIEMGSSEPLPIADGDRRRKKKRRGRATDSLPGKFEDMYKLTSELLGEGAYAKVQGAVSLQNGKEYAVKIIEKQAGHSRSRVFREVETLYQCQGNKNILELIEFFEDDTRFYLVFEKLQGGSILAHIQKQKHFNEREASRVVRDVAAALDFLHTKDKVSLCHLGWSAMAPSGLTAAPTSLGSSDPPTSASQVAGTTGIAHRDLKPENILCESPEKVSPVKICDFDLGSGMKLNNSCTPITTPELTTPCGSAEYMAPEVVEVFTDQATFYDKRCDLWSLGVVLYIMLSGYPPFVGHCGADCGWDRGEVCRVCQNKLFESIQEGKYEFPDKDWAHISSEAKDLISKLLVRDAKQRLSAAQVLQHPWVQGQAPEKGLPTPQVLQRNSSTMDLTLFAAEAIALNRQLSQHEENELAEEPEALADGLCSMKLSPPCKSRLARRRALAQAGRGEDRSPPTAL
Sequence of MNK2 (Q9HBH9 whole entry): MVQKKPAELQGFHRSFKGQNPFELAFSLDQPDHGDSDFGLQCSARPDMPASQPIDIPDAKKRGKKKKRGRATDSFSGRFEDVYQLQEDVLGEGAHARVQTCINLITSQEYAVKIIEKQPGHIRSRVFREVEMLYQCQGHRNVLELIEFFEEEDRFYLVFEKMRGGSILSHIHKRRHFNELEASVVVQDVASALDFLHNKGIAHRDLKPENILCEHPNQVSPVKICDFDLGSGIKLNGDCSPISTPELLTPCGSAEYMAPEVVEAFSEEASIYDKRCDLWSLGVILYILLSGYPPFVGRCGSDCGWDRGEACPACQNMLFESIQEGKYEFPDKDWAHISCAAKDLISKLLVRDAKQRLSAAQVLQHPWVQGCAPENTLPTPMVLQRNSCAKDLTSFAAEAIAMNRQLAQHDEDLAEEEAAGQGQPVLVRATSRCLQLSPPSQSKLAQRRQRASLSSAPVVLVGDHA

| SMILES | microsomal CLint [1] | half-life [1] | Papp A→B at 5 μM (P-gp (human MDR1, ABCB1)) | Papp B→A at 5 μM (P-gp (human MDR1, ABCB1)) | remaining activity at 1 µM [4] | remaining activity at 1 µM [6] | microsomal CLint [7] | half-life [7] | remaining activity at 1 µM [8] | IC50 (MNK1) | IC50 (MNK2) | efflux ratio at 5 μM (P-gp (human MDR1, ABCB1)) | IC50 [10] | IC50 [11] | further results |
| --- | --- | --- | --- | --- | --- | --- | --- | --- | --- | --- | --- | --- | --- | --- | --- |
| Cc1cc(Nc2cc(N)ncn2)c(=O)n2c1C(=O)NC21CCCCC1 [eFT508, reference compound] | 2.86 µL/min/mg | 8.07 h | 26.8 ×10⁻⁶ cm/s | 41.7 ×10⁻⁶ cm/s | 24% | 68% | 1.88 µL/min/mg | 12.3 h | 100% |  |  |  |  |  | anti-proliferative activity [2]: anti-proliferative activity; half-life ([3]; mouse liver microsomes, Table 11b, read-out: T1/2): 8.07 h; IC50 [5]: 2 to 16 nM |
| Cc1cc(Nc2cc(NC(=O)C3CC3)ncn2)c(=O)n2c1C(=O)NC21Cc2ccccc2[C@@H]1F (single isomer, unassigned) [Compound 4ET-03-052B, N-(6-((1′-Fluoro-8-methyl-1,5-dioxo-1,1′,3′,5-tetrahydro-2H-spiro[imidazo[1,5-a]pyridine-3,2′-inden]-6-yl)amino)pyrimidin-4-yl)cyclopropanecarboxamide] |  |  |  |  |  |  |  |  |  | 19.9 nM | 1.63 nM |  |  |  | Efflux ratio (ratio B-A/A-B) (MDCK-MDR1): 2.8; Papp A-B (MDCK-MDR1; Apical to basolateral transport, average of two experiments): 22.9 ×10⁻⁶ cm/s; Papp B-A (MDCK-MDR1; Basolateral to apical transport, average of two experiments): 63.3 ×10⁻⁶ cm/s; T1/2 ([3]; mouse liver microsomes, Table 11b): 2.88 h; IC50 [9]: 11.7 nM; efficacy in the IL-6 evoked grimace test (IL-6 evoked grimace; PO 1 hr prior to IL-6, 4ET-01-021 10.0, 3.0 and 1.0 mg/kg, 4ET-03-052B 10.0 mg/kg): efficacious; effect size in the IL-6 evoked grimace test (IL-6 evoked grimace; sum of grimace scores at 1 and 3 hr minus baseline): statistically-significant effect sizes |
| Cc1cc(Nc2cc(N)ncn2)c(=O)n2c1C(=O)NC21CCC(O)CC1 (centres unmarked) [Compound 4ET-01-005, 6′-((6-Aminopyrimidin-4-yl)amino)-4-hydroxy-8′-methyl-2′H-spiro[cyclohexane-1,3′-imidazo[1,5-a]pyridine]-1′,5′-dione] |  |  | 0.2 ×10⁻⁶ cm/s | 0.6 ×10⁻⁶ cm/s | 41% | 63% | 3.6 µL/min/mg | 6.42 h | 100% | 9.8 nM |  | 2.7 | 26 nM | 8.2 nM | microsomal CLint ([3]; Mouse liver microsomes (*), read-out: CLint rodent): 3.53 µL/min/mg; half-life ([3]; Mouse liver microsomes (*), Table 11a, read-out: Rodent liver microsomes t1/2): 6.55 h; IC50 ([9]; Homo sapiens, HEK293): 8.2 nM |
| Cc1cc(Nc2cc(NC(=O)C3CC3)ncn2)c(=O)n2c1C(=O)NC21CCC(O)CC1 (centres unmarked) [Compound 4ET-03-015, N-(6-((4-Hydroxy-8′-methyl-1′,5′-dioxo-1′,5′-dihydro-2′H-spiro[cyclohexane-1,3′-imidazo[1,5-a]pyridin]-6′-yl)amino)pyrimidin-4-yl)cyclopropanecarboxamide] | 3.18 µL/min/mg | 7.27 h | 0.9 ×10⁻⁶ cm/s | 8.7 ×10⁻⁶ cm/s | 16% | 14% | 2.73 µL/min/mg | 8.45 h | 100% | 19.1 nM | 1.4 nM | 10 | 3 nM | 2.4 nM | IC50 ([9]; Homo sapiens, HEK293, 2 h): 2.7 nM |
